Test results taken from patent US6727401B1, “Pressure sensitive adhesive matrix patch for the treatment of onychomycosis” (Watson Pharmaceuticals, Inc., priority 1998, dated 2004).

Assays:
[1] = In vitro human cadaver nail flux study, modified Franz cells, matrix patch; format: in vitro ADME
Description: The cumulative amount of drug permeated per unit area at any time t(Qt, μg/cm^2) was determined as follows: [formula]
where Cn is the concentration (μg/ml) of the drug in the receiver sample for the corresponding sample time, V is the volume of fluid in the receiver chamber (˜6.3 cm^3), and A is the diffusion area of the cell (0.64 cm^2).
(§1) In vitro human cadaver nail flux studies were conducted using modified Franz non-jacketed permeation cells. The temperature of the nail surface was maintained at 32° C. by placing the cells in a circulating water bath positioned over a stirring module. Human finger nail or toe nail was stored under frozen conditions in 0.02% (w/v) sodium azide solution. Nails that were greater than 1 cm^2 in area were used for the flux studies. Nails with dorsal side facing the donor compartment were sandwiched between two layers of a closed cell polyethylene foam film. Annular ring of 2.38 cm outer diameter and 0.95 cm inner diameter was cut from the backing film. The area of the donut hole (0.97 cm^2) is large enough to provide complete contact with the receiver media. The purpose of the foam backing film was to prevent any leakage of receiver medium from the cell assembly. The nails were allowed to hydrate at 32° C. overnight with 0.02% (w/v) sodium azide solution in the receiver compartment. The following morning, 0.71 cm^2 circular matrix patches were laminated onto the dorsal side of the nail. Each nail matrix sandwich was then loaded between the donor and receiver compartments of a diffusion cell, with the ventral side of nail facing the receiver compartment, and clamped in place.

[2] = In vitro human cadaver skin flux study, modified Franz cells; format: in vitro ADME
Description: In vitro human cadaver skin flux studies were conducted using modified Franz non-jacketed permeation cells. The temperature of the skin surface was maintained at 32° C. by placing the cells in a circulating water bath positioned over a stirring module. The epidermal membrane was separated from the dermatomed human cadaver skin by the heat-separation method of Kligman and Christopher (Arch. Dermatol. 88:702 (1963)) involving the exposure of the full thickness skin to 60° C. heat for 60 seconds, after which time the stratum corneum and the epidermis (epidermal membrane) were gently peeled off the dermis.
For a matrix skin flux study, the heat separated human epidermal membrane was cut into rectangular strips. The matrix was cut into 0.71 cm^2 circular discs. […] At predetermined sampling intervals, the entire contents of the receiver compartment were collected for drug quantitation and the receiver compartment was filled with fresh receiver solution, taking care to eliminate any air bubbles at the skin/solution interface.
For the topical gel study, included for illustration purposes, a thin film of gel approximately 10 μl/cm^2, was applied to the stratum-corneum surface of a hydrated piece of human cadaver skin. […] At predetermined sampling intervals, the entire contents of the receiver compartment were collected for drug quantitation. […]

[3] = Amount of drug retained in the nail after matrix patch application; format: in vitro ADME; settings: human, 48 hours
Description: as §1
The remaining portion of nail was also dried, weighed, extracted in dimethyl sulfoxide and analyzed for drug content.

[4] = Amount of drug retained in the skin after matrix patch application; settings: patch at 24 hours versus day 1 after oral administration
[5] = long term, high dose systemic therapy, cited from earlier work

Clc1ccccc1C(c1ccccc1)(c1ccccc1)n1ccnc1 [clotrimazole]
permeation across the nail [1]: no permeation
skin flux without an enhancer [2]: below the detection limit
amount of drug retained in the nail per unit dry weight of nail [3]: greater than 500 μg/g

OC(Cn1cncn1)(Cn1cncn1)c1ccc(F)cc1F [fluconazole]
permeation across the nail [1]: no permeation
times higher amount of fluconazole in the skin compared to oral administration [4]: 500-600 times
times higher amount of drug in the nail after patch application compared to reported oral administration [3]: 1000-2000 times

CC(=O)N1CCN(c2ccc(OCC3COC(Cn4ccnc4)(c4ccc(Cl)cc4Cl)O3)cc2)CC1 (centres unmarked) [ketoconazole]
reported liver toxicity [5]: liver toxicity effects
reported effect on testosterone levels in blood ([5]; due to adverse effects on the testes): reduces testosterone levels in blood
effect of the presence of an enhancer on skin flux ([2]; enhancer lauramide-DEA, acrylic pressure sensitive adhesive): doubles the flux

CN(C/C=C/C#CC(C)(C)C)Cc1cccc2ccccc12 [terbinafine]
permeation across the nail [1]: no permeation
times higher amount of drug in the nail after patch application compared to reported oral administration [3]: 100-1000 times
